Reference: patent US10875898B2, “Bioactive protein, use thereof and method for its production” (Koppert B.V., priority 2014, dated 2020)

Legend:
Assay type in all cases: in vivo
tomato plants = test: tomato plant growth, watering and spraying; details: 0.01 μM, once per week for one month; vs T. harzianum T22, GERMON E and untreated control
From the text: FIG. 10: Effect of HYTLO1 on tomato plant growth as compared to treatment with T. harzianum strain T22 or the Commercial product GERMON E (G-E) base on the auxin 1-naphthaleneacetic acid, commercialized by L. Gobbi, Italy. (A) Growth increase of root and stem of HYTLO1 vs. water control, GERMON E or T22, 10 days after treatment. (B) Increase of root development (HYTLO1 treatment on the left, untreated control on the right), (C) Effect of HYTLO1 on plant size compared to T22. (D) Effect of HYTLO1 on root development compared to water control, T22, GERMON E (also in combination with HYTLO1). HYTLO1 was applied at final concentration in the soil at 10^−8 M.
FIG. 11: Effect of purified HYTLO1 on tomato plants, applied by drench on the roots or by spraying on the leaves. For the irrigation, 50 ml of a solution containing 0.072 μg/ml of HYTLO1 (0.01 μM) were applied for each pot containing 1 litre of soil and 2 tomato plants, for a total of 4 applications. For foliar application, 20 ml of a solution containing 0.072 μg/ml (0.01 μM) of HYTLO1 were sprayed for each pot containing 2 tomato plants for a total of 4 applications. […]

tomato = tomato root development (seeds, cuttings)
Protocol: FIG. 9: Effect of purified HYTLO1 application on tomato plant and root development. Tomato roots (left) and tomato cuttings (right) were dipped in a HYTLO1 solution of 0.018 μM.
In order to investigate the effect of HYTLO1 on the development of plants, either at the level of seed germination, germling formation and survival, root formation, stem elongation and thickness, foliar development, as well as general plant size, various experiments were performed with the purified protein. […] The protein clearly stimulated rhizogenesis on different plants. […] Experiments on plants were performed in vivo by watering and spraying tomato plants with a HYTLO1 0.01 μM solution as described in the legend of FIG. 10. In these experiments, the effect of HYTLO1 was also compared with that of the commercial biocontrol strain T. harzianum T22 (applied as spore suspension according the typical application rate of commercial products) and that of the germinating hormone 1-naphthaleneacetic acid (GERMON E—produced by L. Gobbi, Italy) (applied at the typical application rate of commercial products). Applications were made once per week for one month by watering the tomato plants. Results, expressed in terms of plant height and length, root length and weight, number of leaves, stem diameter and weight, are combined and shown in FIG. 10 and FIG. 11.

cucumber = test: combined application of HYTLO1 and Trichoderma spp. strains on cucumber growth promotion; details: 20 days after seed coating
Protocol: The results are shown in Table 2 and expressed in terms of increased stem and root length or fresh/dry weight. Cucumber seeds were coated with the purified molecule solutions and/or spore suspension, transferred into Petri dishes and left to germinate on humid filter paper. Germinated seedlings were transplanted into pots containing sterilised soil. Other two treatments with the purified molecules were performed at 7 days interval, by drenching the soil with the solutions at the final concentrations of 10^−8M for HYTLO1, and 1 ml of a 10^7 spore/ml suspension per 10 ml soil. In two-compounds application, half dose of each molecule was used. Each treatments was performer on at least 8 plants, and results were collected 20 days after seed coating. This experiment confirmed the beneficial effect exerted by HYTLO1 alone and in combination with Trichoderma species on plant growth. […] In particular, and only as an example, combined treatment with T. harzianum T22+HYTLO1, and T. harzianum strain TH1+HYTLO1 determined a significant increase in plant growth promotion effect of up to 33% more compared to controls (synergistic results as by the Limpel's formula are underlined in the Table).

Lotus japonicus = test: plantlet development of Lotus japonicus; details: 10^−8 M in agarized medium
Protocol: FIG. 12: Effect of purified HYTLO1 on the growth of Arabidopsis (A), percentage seed germination of cucumber (B) and plantlet development of Lotus japonicus (C). A: Arabidopsis thaliana (Columbia-0: Col-0) seeds were sown in Levington's F2 compost plus sand (JFC Munro, Devon; http://www.jfcmonro.com) and chilled for 2 days at 4° C. Plants were grown under short-day conditions (10 h light) in a controlled environment chamber, at 22° C. during the day and 18° C. at night with 60% relative humidity for 5-6 weeks before transplanting. Ten ml of sterile solutions of HYTLO1 were drenched every two days at concentrations 0.072 μg/ml (0.01 μM) for one month in each pot containing 100 ml of soil and 1 Arabidopsis plant. Untreated plants were used as controls. B: Sterile cucumber seeds were placed on magenta box containing half-strength Murashige and Skoog salt (MS) medium (ICN Biomedicals) containing 1% agar and 1.5% sucrose, adjusted to pH 5.7, and vernalized for 2 days at 4° C. in the absence of light. A sterile solutions of HYTLO1 was added to the substrate at final concentration of 10^−8 M before the solidification of agar. C: The same concentration of HYTLO1 was used in the agarized medium used for the L. japonicus test. […]

With “HYTLO1: about 7 KDa Type II hydrophobin protein from Trichoderma longibrachiatum strain MK1, 71 aa, SEQ ID NO: 1” the “growth parameters (plant height and length, root length and weight, number of leaves, stem diameter and weight)” value (tomato plants) was “increased all of the growth parameters”, the “concentration promoting root growth and development” value (tomato; assays on cuttings) was ≥ 0.31 µM and the “de novo root formation on tomato cuttings” value (tomato; cuttings dipped in 0.075 and 0.018 μM, after 15 days, no roots in controls) was “formed de novo roots”. The “root apparatus of plantlets vs untreated control” value (tomato; tomato seeds germinated with HYTLO1 10^−6 to 10^−9 M, data not shown) was “more than double”, the “plant height (cm), percentage increase compared to water control” value (cucumber; 10^−8M HYTLO1, 10^7 spore/ml, half dose in combinations, SD +− 1.5) was 1.8% and the “Root length (cm), percentage increase compared to water control” value (cucumber; SD +− 2.0) was 8.5%. For the same substance, the “Plant fresh weight (g), percentage increase compared to water control” value (cucumber; SD +− 2.8) was 4.2%, the “Plant dry weight (g), percentage increase compared to water control” value (cucumber; SD +− 3.1) was 7.3% and the “growth promotion effect (plantlet development)” value (Lotus japonicus) was “confirmed”.
